Reference: patent publication EP2963103A1, “pH-sensitive nanocapsules” (Henkel AG & Co. KGaA, priority 2014, dated 2016)

How the values were obtained:
[1] = Encapsulation efficiency EEsc / solid content, gravimetric after freeze-drying; format: physicochemical; details: fragrance encapsulated with Monomermischung S1
From the text: Der Feststoffgehalt (SC) wurde […] Proben bestimmt. Vorher wurden zwei verschiedene theoretische Feststoffgehalte berechnet. SC1 ohne die Masse des Riechstoffs und SC2 […] Bestimmung des […] und […] bei der Messung des Feststoffgehalts SC2 mitbestimmt. Unter […] bei Polymerisation kann durch den Vergleich des praktisch gemessenen Feststoffgehalts SC mit den oben genannten theoretischen Werten die Menge an […]. Der Anteil an […] zur Einsatzmenge bei […].: Encapsulation Efficiency) EEsc in Prozent angegeben. Der theoretisch berechneten Feststoffgehalt SC1 betrugt 14,3%. Die Angabe […] 1 zeigt, dass der Riechstoff eingeschlossen wurde und […]. Die […]. Die in den Beispielen 1 und 2 verwendete Monomermischung S1 wurde für die Verkapselung weiterer Riechstoffe verwendet und die […] oben […]. Die […]

[2] = Hansen-Parameter, cited from earlier work; for δp: dipolar forces; for δd: dispersion forces; for δh: hydrogen bonds
[3] = Hansen-Parameter, δt^2 = δd^2 + δp^2 + δh^2
From the text: Damit die hydrophobe Verbindung effektiv verkapselt werden kann, ist es erforderlich, dass die Verbindung ausreichend hydrophob ist, so dass sie nicht mit dem aus den Monomeren gebildeten Polymer derart interagiert, dass sie dieses übermäßig quellen und dadurch für die Verbindung stärker permeabel werden lässt. Es ist daher bevorzugt, dass die mindestens eine hydrophobe Verbindung einen Hansen-Parameter δt von weniger als 20, insbesondere weniger als 19 hat; und/oder einen Hansen-Parameter δh von weniger als 10, insbesondere weniger als 6 hat.
Der Hansen-Parameter ist ein in der Polymerchemie weit verbreiteter Parameter zum Vergleich der Löslichkeit bzw. Mischbarkeit von verschiedenen Substanzen. Dieser Parameter wurde von Charles Hansen entwickelt, um die Löslichkeit eines Materials in einem anderen vorherzusagen. Dabei wird die Kohäsionsenergie einer Flüssigkeit betrachtet, welche in mindestens drei verschiedene Kräfte eingeteilt werden kann: (a) Dispersionskräfte zwischen den Molekülen δd, (b) Dipolare intermolekulare Kräfte zwischen den Molekülen δp und (c) Wasserstoffbrückenbindungen zwischen den Molekülen δh. Diese drei Parameter können zu einem Parameter δt zusammengefasst werden nach der Formel δt^2 = δd^2 + δp^2 + δh^2. Je ähnlicher der Hansen-Parameter von unterschiedlichen Materialien ist, desto besser sind diese ineinander mischbar.
Tabelle 3 gibt die Hansen-Parameter für die getesteten Riechstoffe an. Tabelle 3: Hansen-Parameter

Molecule | Verkapselungseffizienz EEsc [1] | δp [2] | δd [2] | δh [2] | δt [3]
CC1=CCC2CC1C2(C)C (stereo not drawn) [α-Pinen] | 91% | 4,3 | 15,6 | 0 | –
C/C=C\C(=O)C1C(C)=CCCC1(C)C (stereo not drawn) [α-Damascone] | 52% | 5,7 | 17,1 | 5,8 | 18,94
OCCc1ccccc1 [Phenylethylalkohol] | – | 7,6 | 18,8 | 13 | 24,09
CC/C=C\CC1=C(C)CCC1=O [Jasmone] | – | 5,2 | 17 | 5,1 | 18,49
C/C=C/C(=O)C1=C(C)CCCC1(C)C [β-Damascone] | 72% | 4,9 | 17,4 | 5,3 | 18,84
C=CC(C)CCCC(C)(C)O (centres unmarked) [Dihydromyrcenol] | 4% | 4,3 | 16 | 10,7 | 19,72
Hexenol | 0% | 6,7 | 16 | 13,4 | –
CC(C=O)Cc1ccc(C(C)(C)C)cc1 (centres unmarked) [Lilial, 3-(4-tert-Butylphenyl)-2-methylpropanal] | 77% | 2,3 | 17,3 | 4,8 | 18,10
CC(C)=CCCC(C)CC=O (centres unmarked) [Citronellal] | 72% | 5,9 | 16,2 | 5,2 | 18,01
Ionon | 46% | 5,7 | 17,1 | 5,8 | 18,94
CC(C)=CCCC(C)CCO (centres unmarked) [Citronellol] | 25% | 4,8 | 16,1 | 10,8 | 19,97
CC(C)=CCC/C(C)=C/CO [Geraniol] | 0% | – | – | – | 20,25
